Measurements as given in patent US20250263388A1, “NOVEL COMPOUND BASED ON VALEROLACTONE AND MEDICINE” (priority 2018, published 2025).

Columns and labels:
[1] = system: differentiated NSC-34 cells; assay: ODAP-EA assay (reducing effect on motor excitotoxicity); assay type: cell-based, mouse
Source text: ODAP-EA assay was invented by the present inventor as a test for measuring the reducing effect on motor exciotoxicity (Kusama-Eguchi K, et. al. Food Chem Toxicol., 49, 636-643 (2011)). In the ODAP-EA assay, differentiated NSC-34 cells were subjected to excitotoxicity in NSC-34 cells by adding ethacrynic acid (EA), which has a mitochondrial glutathione level-lowering effect, and L-β-ODAP, which is a neurotoxic amino acid. Then, the effect of reducing the excitotoxicity of the test substance is evaluated.
NSC34 cells were cultivated in a Rich medium in a […] until they became confluent, and then the Rich medium in the dish was removed. […] The replacement of the Poor medium once a day was repeated about 3 to 5 times to promote the differentiation of NSC-34 cells.
The NSC-34 cells differentiated as described above were suspended in Poor medium and seeded in a 96-well plate at a target concentration of 4×10^4 cells/well at 200 μL/well. […]
Then, 110 μL of the medium in the well plate was removed, 10 μL/well of AlamarBlue™ previously returned to room temperature was added, and the plate was placed in an incubator at 37° C. under 5% CO2 condition. After about 1 hour, the fluorescence intensity (excitation wavelength: 544 nm, fluorescence wavelength: 590 nm) was measured using a fluorescence plate reader. […]

[2] = system: SOD1-G93A-introduced N2a cells; assay: Dual-luciferase assay (SOD1-G93A gene introduced into N2a cells); conditions: positive control resveratrol
[3] = system: ALS model mice holding SOD1-G93A gene; assay: Motor performance (Rota-rod test) in ALS model mice; assay type: in vivo, mouse
Experimental: (§1) ALS model mice holding SOD1-G93A gene were used for the experiment. The first generation mouse was generated by bleeding a 6-week-old SOD1-G93A transgenic male (B6SJL-Tg (SOD1-G93A) 1Gur/J, imported from The Jackson Laboratory, USA) with 8-week-old C57BL/6J female mice (designated as F1 as shown below), and placed in the same cage for 1 week for mating.
Backcrossing was performed using the first backcross SOD1-G93A gene-bearing male mouse (FuBk1) and C57BL/6J female mouse (F1) produced as described above, and the resulting mouse carrying the SOD1-G93A gene was backcrossed with C57BL/6J female mice, which was the second mouse (FuBk2) They were used in the preliminary test described below. […]
(§2) The test substance was evaluated based on two points: the survival days of mice and motor function. Regarding the number of days of survival, the number of days until the mouse was determined to be dead (including surrogate death) was evaluated. Motor function was evaluated by a motor test using the Rota-rod method.
In order to investigate the onset time of ALS-like symptoms in the test subject mouse, the motor function of the mouse was measured once a week by the Rota-rod method using a ROTA-ROD TREADMILL for MICE MK-600 (Muromachi). […] Those who fell twice in 300 seconds or less were regarded as mice showing the symptoms of motor inability, and the latency (seconds) until they fell was also measured. […]

NSC-34 cells = assay: ROS assay; assay type: cell-based, mouse
Experimental: The ROS assay is a test in which the test substances are evaluated for their ability to eliminate the ROS produced by a cell under stress. The ROS assay was performed by culturing NSC-34 cells in a medium from which serum (FBS) had been removed, and measuring the increased ROS produced at that time using CM-H2DCFDA.
NSC-34 cells were suspended in phenol red free DMEM medium, and NSC-34 cells were seeded at a target concentration of 4×10^4 cells/well in a 96-well plate at 200 μL/well.
Then, the medium was completely removed from the 96-well plate, DMEM ([-] phenol red) was added at 200 μL/well, and then the test substance dissolved in DMSO (or solvent only) was added at 0.4 μL/well. […] And placed in the incubator for 1 hour. One hour later, the fluorescence intensity (excitation wavelength 485 nm, fluorescence wavelength 520 nm) was measured using a fluorescence microplate reader.
The test was performed 2 to 4 times in quadruplicate. As a positive control, 30 μg/mL (120 μM) trolox was used. From the measurement result obtained with the test substance, the relative intensity to trolox was calculated by the following formula (1).

[4] = system: ALS model mice holding SOD1-G93A gene; assay: Survival days (Kaplan-Meier) in ALS model mice; assay type: in vivo, mouse
Experimental: as §1
(§3) Backcrossing was performed using the first backcross SOD1-G93A gene-bearing male mouse (FuBk1) and C57BL/6J female mouse (F1) produced as described above, and the resulting mouse carrying the SOD1-G93A gene was backcrossed with C57BL/6J female mice, which was the second mouse (FuBk2) They were used in the preliminary test described below. A male mouse (FuBk2) carrying the SOD1-G93A gene was further crossed with an F1 female mouse to prepare a third backcrossed mouse (FuBk3) and a fourth backcrossed mouse (FuBk4), which will be described later as the final examination.
as §2
A mouse that lost its righting reflex and could not return to the correct posture within 20 seconds was determined to be a surrogate death.
The test results were analyzed by the Kaplan-Meier method, and the p-value and median were obtained by the Log-Rank test or the Wilcoxon test. The latency between control and YY-1 group after developing of the motor inability was analyzed by T-test for each measuring point.
Of the third backcrossed mouse (FuBk3) carrying the SOD1-G93A gene, a total of 51 male and female mice determined to carry the SOD1-G93A gene by genotyping, and were used as test animals.
The test drug was prepared at a concentration shown in Table 14 using a 1% DMSO+2% Tween 20 solution as a solvent. The test substance was orally administered to mice using a sterilized disposable sonde. According to Table 13 above, the test substance in an amount corresponding to the body weight was […] administered to the mouse.
A total of 52 determined female mice were used as test animals.
The test substance was administered to the mouse once a day from 105 days after birth using a sterilized disposable oral probe at 0.1 mL/10 g (body weight) (10 mg/kg).

[5] = system: ALS model mice holding SOD1-G93A gene; assay: Change in the body weight of ALS model mice, administration test 1; assay type: in vivo; conditions: 1 mg/kg and 10 mg/kg, oral once a day from 60 days after birth
Experimental: as §1, §3
Subject animal: The second backcrossed mice (FuBk2) holding SOD1-G93A were determined by genotyping, and were used for the treatment experiment from 60 days after birth (pre-symptomatic period). A total of 16 animals were used as test animals (n=16).
The test substance dissolved in DMSO was prepared at a concentration shown in Table 12 using a 2.5% DMSO (final concentration) solution as a solvent. […]
The body weight was measured twice a week. […]

ALS = conditions: cited from earlier work; for efficacy in clinical trials: ALS therapeutic drug candidates
[6] = 5 mg/kg oral once a day from about 45 days after birth, FuBk3 mice, tendency, p=0.090
[7] = 10 mg/kg oral once a day from 105 days after birth, FuBk4 mice, p=0.029

With `C/C=C/C=C/[C@H]1OC(=O)CC[C@@H]1O` [YY-1, (5S,6R)-5-hydroxy-6-[(1E,3E)-penta-1,3-dien-1-yl] tetrahydro-2H-pyran-2-one] the “relative strength with respect to 4 mM NAC (highest)” value ([1]; 0.1 to 3.0 μg/mL (0.55 to 16.5 μM)) was no more than 20%, the ODAP-EA toxicity-reducing effect ([1]; all concentrations of 0.1 to 100 μg/mL (0.55 to 550 μM)) was “strong ODAP-EA toxicity-reducing effect” and the “luminescence intensity in excess of the positive control” value ([2]; 0.1 μg/mL (0.55 μM)) was “about 40%”. For the same compound, the “luminescence intensity in excess of the positive control” value ([2]; 1 μg/mL (5.5 μM)) was “about 40%”, the “prolongation of development of motor disability vs control, median” value ([3]; 5 mg/kg oral once a day from about 45 days after birth, FuBk3 mice, tendency, p=0.12) was 7 days and the “delay effect in motor dysfunction” value ([3]; 10 mg/kg oral once a day from 105 days after birth, FuBk4 mice) was “about 7 days”. For the same compound, the “ROS scavenging action relative to trolox” value (NSC-34 cells; relative to 30 μg/mL (120 μM) trolox, serum-free medium, test substance 10, 30 or 100 μg/mL) was “about 20%”, the “ROS assay activity relative to 322-Ext at the same concentration” value (NSC-34 cells; same concentration as 322-Ext) was “about 40%” and the “extension of survival days vs control, average value” [4, 6] was “about 5 days”. The “extension of survival days vs control, median value” [4, 6] was 8 days, the “prolongation of survival days vs control, mean value” [4, 7] was “about 6 days” and the “prolongation of survival days vs control, median value” [4, 7] was 5 days. For the same compound, the “toxicity to the ALS model mouse (presumed from body weight)” value [5] was “no or low toxicity” and the body weight change ([5]; FuBk2 male mice) was “no significant weight loss”.

In the case of `COC1=C(OC)C(=O)C(C/C=C(\C)CC/C=C(\C)CC/C=C(\C)CC/C=C(\C)CC/C=C(\C)CC/C=C(\C)CC/C=C(\C)CC/C=C(\C)CC/C=C(\C)CCC=C(C)C)=C(C)C1=O` [coenzyme Q10], the “efficacy in clinical trials” value (ALS) is listed as “no efficacy”.

In the case of `N[C@@H](CCC(=O)N[C@@H](CS)C(=O)NCC(=O)O)C(=O)O` [glutathione], the “efficacy in clinical trials” value (ALS) is listed as “no efficacy”.

For `C/C1=C2/[N-][C@H]([C@H](CC(N)=O)[C@@]2(C)CCC(=O)NC[C@@H](C)OP(=O)([O-])O[C@H]2[C@@H](O)[C@@H](n3cnc4cc(C)c(C)cc43)O[C@@H]2CO)[C@]2(C)N=C(/C(C)=C3N=C(/C=C4N=C1[C@@H](CCC(N)=O)C\4(C)C)[C@@H](CCC(N)=O)[C@]\3(C)CC(N)=O)[C@@H](CCC(N)=O)[C@]2(C)CC(N)=O.[CH3-].[Co+3]` [methylcobalamin], the “efficacy in clinical trials” value (ALS) is listed as “no efficacy”.

In the case of `CC(=O)N[C@@H](CS)C(=O)O` [N-acetylcysteine], the “efficacy in clinical trials” value (ALS) is given as “no efficacy”.

For “IGF-1: Insulin-like growth factor-1, protein expected to have an action of preventing motor nerve loss”, the “outcome of clinical trials (Phase 3)” value (ALS; Non-Patent Document 5) is listed as “unsuccessful”.
